Assays:
[1] = tested on: patients with early rheumatoid arthritis; assay: Study J: hand bone mineral density by digital X-ray radiogrammetry (DXR-BMD); type: in vivo, human
Description: (§1) The radiographic and clinical data from this 2-year, multi-centre, double-blind, randomised controlled study (Study J) was previously been described in detail (see Breedveld et al. (2006) Arthritis Rheum 54:26-37). The efficacy and safety of adalimumab plus MTX was compared with adalimumab monotherapy and with MTX monotherapy for 799 adult patients with early (<3 years), aggressive RA (mean erosion score of approximately 12 Sharp units, estimated annual TSS progression of approximately 27 Sharp units) who previously had not been treated with MTX, cyclophosphamide, cyclosporine, azathioprin or more than 2 other DMARDs (Breedveld et al. (2006), supra). […] Radiographs from hands and feet were scored according to a modified Sharp score (range 0-398) (Breedveld et al. (2006), supra).
(§2) Digital X-ray radiogrammetry (DXR) (Sectra, Linkoping, Sweden) was used to measure hand bone mineral density (BMD) and metacarpal cortical index (MCI) on the same digitized hand X-rays used for assessment of radiographic joint damage. DXR is a computer version of the traditional radiogrammetry technique,[13] and have improved the method and its precision substantially. DXR has been described in detail.[14,15,16] On hand radiographs, the computer automatically recognizes regions of interest (ROI) around the narrowest part of the second, third, and fourth metacarpal bone and measures cortical thickness, bone width, and porosity 118 times per cm. DXR-BMD is defined as: c X VPAcomb X (1-p), where c is a constant (determined by the result that DXR-BMD, on average, is equal to the mid-distal forearm region of the Hologic QDR-2000 device); VPA is volume per area; and p is porosity. DXR-MCI is defined as the combined cortical thickness divided by the outer cortical diameter and is a relative bone measure independent of bone size, bone length, and image capture setting.[16.17] Both DXR-BMD and DXR-MCI provide substantial degrees of precision.[17]
For comparison, results for DXR-BMD are also provided. All images of unknown resolution were analyzed by assuming 254 dpi (the scanning resolution for the radiographs before scoring). Several of the radiographs were, however, clearly of a resolution other than 254 dpi, most likely because they had been printed in non-true size before scanning. All available images from baseline were analyzed, as well as 26, 52 and 104 weeks, by DXR-BMD and calculated mean metacarpal width. Based on analyses from other studies with a controlled resolution, [19] a deviation from baseline width greater than 2% was believed to likely indicate an incorrect value. With this 2% value as a cut-off, 23% of the radiographs were excluded from further DXR-BMD analyses. The flow chart in FIG. 1 illustrates the patients who were included in the DXR-MCI and DXR-BMD analyses.
(§3) To avoid bias regarding dominant vs. non-dominant hand and to achieve better accuracy, mean value measurements from both hands were used.[10] If the radiograph from one hand could not be analysed or were missing, the radiograph from the available hand for all analyses at the different time points was used.
(§4) Since the data were not normally distributed, non-parametric analyses were conducted. No imputations were performed. Baseline values were compared between treatment groups with the Kruskall-Wallis method for continuous variables and with the chi-squared method for categorical variables. Comparisons of changes in hand BMD were conducted following methodologies parallel and similar to ones employed in the original Study J. Two groups were compared in a hierarchical order with the Mann-Whitney U test (i.e., two-sided comparison of the combination group vs. MTX, followed by two-sided comparisons between the monotherapy treatment arms, and finally two-sided comparisons between the adalimumab monotherapy and the combination group). Each pair-wise comparison was completed only if the previous comparison was statistically significant. Bone loss over time was expressed as a negative value. […]

[2] = tested on: patients with early rheumatoid arthritis; assay: Study J: cortical hand bone loss by digital X-ray radiogrammetry metacarpal cortical index (DXR-MCI); type: in vivo, human; details: for median percentage DXR-MCI change: change from baseline
Description: Generally, the study included 768 patients with active RA for <3 years who were naïve to MTX. Clinical data collections and radiographic examinations of hands were performed at baseline, and after 26, 52 and 104 weeks of therapy. Hand bone loss was assessed by digital X-ray radiogrammetry (DXR), primarily as metacarpal cortical index (MCI), on the same radiographs used for joint damage assessments.
as §1, §2
DXR-BMD was intended to be the main outcome measure in this study. However, many radiographs could not be analysed for BMD because of unknown image resolution. Generally, the equation for DXR-BMD is based on volume per area and requires a defined or known resolution, since a distance in a digitised radiograph cannot be measured when the resolution is unknown. Thus, DXR-MCI, which is a relative measure independent of image resolution, was used as the primary outcome measure. […] [19]
as §3
as §4, with “significant.” for “significant. Bone loss over time was expressed as a negative value.”

[3] = tested on: early (<3 yrs), active, MTX-naive RA patients; assay: Subanalysis of Study J: DXR-MCI hand bone loss by clinical response (DAS28 subgroups); type: in vivo, human; details: for Mean % DXR-MCI change / median % DXR-MCI change: baseline to 52 weeks
Description: As described above, Study J compared the efficacy of adalimumab plus MTX vs. MTX alone and adalimumab alone in early (<3 yrs), active, MTX-naive RA patients. The subanalysis described herein involved the MTX monotherapy and the combination therapy groups. Hand bone loss was assessed by digital X-ray radiogrammetry metacarpal cortical index (DXR-MCI), calculated from digitized radiographs (DXR, Sectra, Sweden). […] MCI percentage change from baseline to 52 weeks was evaluated for patients with different clinical response. Disease activity was assessed by DAS28 scores at 52 weeks in 4 subgroups: Remission=DAS28<2.60; Low disease activity=DAS28 2.61-3.20; Moderate disease activity=DAS28 3.21-5.20; and high disease activity=DAS28>5.20. Non-parametric group comparisons were performed.

[4] = tested on: patients with early rheumatoid arthritis; assay: Study J: radiographic joint damage, modified Sharp score; type: in vivo, human
Description: as §1

[5] = tested on: RA; details: 7.5 mg daily, compared with placebo; cited from earlier work
[6] = tested on: RA patients; details: RA patients receiving infliximab; cited from earlier work
[7] = High disease activity (DAS28>5.20)
[8] = Low disease activity (DAS28 2.61-3.20)
[9] = Moderate disease activity (DAS28 3.21-5.20)

Row | Compound | median DXR-BMD percentage change ([1]; 26 weeks) [%] | median DXR-BMD percentage change ([1]; 52 weeks) [%] | median DXR-BMD percentage change ([1]; 104 weeks) [%] | median percentage DXR-MCI change ([2]; 26 weeks) [%] | median percentage DXR-MCI change ([2]; 52 weeks) [%] | median percentage DXR-MCI change ([2]; 104 weeks) [%] | mean radiographic change in the modified Sharp score ([4]; 26 weeks) [units] | median radiographic change in the modified Sharp score ([4]; 26 weeks) [units] | mean radiographic change in the modified Sharp score ([4]; 52 weeks) [units] | median radiographic change in the modified Sharp score ([4]; 52 weeks) [units] | mean radiographic change in the modified Sharp score ([4]; 104 weeks) [units] | median radiographic change in the modified Sharp score ([4]; 104 weeks) [units] | other results
1 | adalimumab | −0.96 | −1.97 | −2.40 | −1.33 | −2.45 | −4.03 | 2.1 | 0.5 | 3.3 | 0.5 | 4.8 | 1.0 | effect on hand bone loss (in words) ([2]; early RA, Study J): protected against hand bone loss; hand bone loss in relation to clinically assessed disease activity (in words) ([3]; 52 weeks, DAS28 subgroups): reduces hand bone loss independent of clinically assessed disease activity
2 | CN(Cc1cnc2nc(N)nc(N)c2n1)c1ccc(C(=O)N[C@@H](CCC(=O)O)C(=O)O)cc1 [MTX, methotrexate] | −1.20 | −1.86 | −3.58 | −1.42 | −2.87 | −4.62 | 3.4 | 1.0 | 5.1 | 2.0 | 6.4 | 2.0 | difference in bone loss among remission, low, moderate and high disease activity subgroups (in words) ([3]; 52 weeks): numerical differences; DXR-MCI percentage change ([3]; 52 weeks, pooled subgroup moderate and high disease activity (DAS28)): −4.65%; Mean % DXR-MCI change [3, 7]: −4.64%; median % DXR-MCI change [3, 7]: −3.02%; Mean % DXR-MCI change [3, 8]: −2.98%; median % DXR-MCI change [3, 8]: −2.20%; Mean % DXR-MCI change [3, 9]: −4.65%; median % DXR-MCI change [3, 9]: −3.33%; Mean % DXR-MCI change ([3]; Remission (DAS28<2.60)): −2.99%; median % DXR-MCI change ([3]; Remission (DAS28<2.60)): −2.14%
3 | C[C@]12C=CC(=O)C=C1CC[C@@H]1[C@@H]2[C@@H](O)C[C@@]2(C)[C@H]1CC[C@]2(O)C(=O)CO [prednisolone] | – | – | – | – | – | – | – | – | – | – | – | – | rate of hand bone loss (in words) [5]: significantly reduce; rate of radiographic joint damage (in words) [5]: significantly reduce
4 | infliximab | – | – | – | – | – | – | – | – | – | – | – | – | bone loss in hip and spine (in words) [6]: arrested; hand bone loss (in words) [6]: hand bone loss was not halted

Source: patent publication US20100040630A1, “METHODS AND COMPOSITIONS FOR TREATING BONE LOSS” (priority 2008, published 2010)
